# Test results from paper PMC11647895 (Journal of Medicinal Chemistry, 2024).
# Experiments:
# [1] = system: Keap1-NRF2 nuclear translocation; type: cell-based; conditions: Nrf2 translocation assay, engineered U2OS cell line
# [2] = Reactivity with glutathione in pH 7.4 phosphate buffer; type: physicochemical; conditions: 1 mM compound, 10 mM glutathione, 10% DMSO, 54 h, 37 °C
# [3] = system: 36 receptor Cerep panel; experiment: Cerep receptor panel screen; conditions: 10 μM, 36 receptors
# [4] = system: Nrf2 KO mouse embryonic fibroblast cells; experiment: ARE signal in Nrf2 KO cells
# [5] = biological target: BTB domain of KEAP1 (Homo sapiens, UniProt Q14145); experiment: Intact mass spectrometry, covalent adduct formation with KEAP1; conditions: intact MS / LC-MS
# Sequence of BTB domain of KEAP1 (Q14145 48-213): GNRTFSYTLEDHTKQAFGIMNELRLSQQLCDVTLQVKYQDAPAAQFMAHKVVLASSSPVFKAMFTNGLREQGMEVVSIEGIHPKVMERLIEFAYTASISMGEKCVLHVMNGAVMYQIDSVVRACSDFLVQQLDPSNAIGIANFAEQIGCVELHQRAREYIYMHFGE
# [6] = biological target: C151A mutant of KEAP1 BTB domain (Homo sapiens, UniProt Q14145, C151A); experiment: Intact mass spectrometry, covalent adduct formation with KEAP1 C151A; conditions: intact MS
# Sequence of C151A mutant of KEAP1 BTB domain (Q14145 48-213 C151A): as the sequence (Q14145 48-213) above, with C104A counted along it
# [7] = biological target: T1, KLHL26 BTB domain (Homo sapiens, UniProt Q53HC5); experiment: LC-MS, covalent adduct formation with KLHL26; type: binding
# T1 sequence (Q53HC5 34-161): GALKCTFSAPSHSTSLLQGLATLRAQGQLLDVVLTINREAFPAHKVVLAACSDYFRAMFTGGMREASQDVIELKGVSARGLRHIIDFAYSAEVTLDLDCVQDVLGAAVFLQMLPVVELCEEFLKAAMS
# [8] = system: TK6 cells; experiment: DNA damage response; type: cell-based, human
# [9] = system: ARE (Nrf2 activation)
molecule,measurement,setting,value
4-(2-Chlorophenyl)sulfonyl-2-ethylsulfonyl-5-(3-pyridyl)thiazole Hydrochloride [Compound 17],U2OS EC50,[1],completely inactive
"Cc1ccc(S(=O)(=O)c2nc(S(=O)(=O)c3ccccc3)sc2N2CCN(C)CC2)cc1 [Compound 2, 2-(Benzenesulfonyl)-5-(4-methylpiperazin-1-yl)-4-(p-tolylsulfonyl)thiazole]",conversion with glutathione,[2],30%
"CCS(=O)(=O)c1nc(S(=O)(=O)c2ccccc2Cl)c(N2CCN(C)C(=O)C2)s1 [Compound 7, 4-[4-(2-Chlorophenyl)sulfonyl-2-ethylsulfonyl-thiazol-5-yl]-1-methyl-piperazin-2-one]",off-target activity,[3],did not observe any significant off-target activity
same,ARE signal,[4],did not observe any of the ARE signal
same,covalent adduct formation with KEAP1 BTB,[5],a single adduct was formed
same,covalent adduct formation with KEAP1 BTB C151A mutant,[6],no covalent adduct
"CCS(=O)(=O)c1nc(S(=O)(=O)c2ccccc2Cl)c(N2CCN(C)C(=O)[C@H]2C)s1 [Compound 23, (3R)-4-[4-(2-Chlorophenyl)sulfonyl-2-ethylsulfonyl-thiazol-5-yl]-1,3-dimethyl-piperazin-2-one]",covalent adduct formation / binding to KLHL26 BTB domain,[7],no binding
"CCS(=O)(=O)c1nc(S(=O)(=O)c2ccccc2C#N)c(N2CCN(C)C(=O)[C@H]2C)s1 [Compound 25, 2-[5-[(2R)-2,4-Dimethyl-3-oxo-piperazin-1-yl]-2-ethylsulfonyl-thiazol-4-yl]sulfonylbenzonitrile]",covalent adduct formation / binding to KLHL26 BTB domain,[7],no binding
"CCP1(=O)CCN(c2sc(S(=O)(=O)CC)nc2S(=O)(=O)c2cccc(Cl)c2Cl)CC1 [Compound 27, 1-[4-(2,3-Dichlorophenyl)sulfonyl-2-ethylsulfonyl-thiazol-5-yl]-4-ethyl-1,4λ^5-azaphosphinane 4-Oxide]",DDR (TK6) with S9,[8]; with S9 metabolic activation,aneugen
same,DDR (TK6),[8]; without S9,negative
same,covalent adduct formation / binding to KLHL26 BTB domain,[7],no binding
CC1(C)CC[C@]2(C(=O)O)CC[C@]3(C)[C@H](C(=O)C=C4[C@@]5(C)C=C(C#N)C(=O)C(C)(C)[C@@H]5CC[C@]43C)[C@@H]2C1 [bardoxolone],EC50,[9],9.2 nM
